Source: patent US20120035161A1, “Novel Compositions and Methods of Treating Diseases Using the Same” (CORRIDOR PHARMACEUTICALS, INC., priority 2006, published 2012)
Values joined by “and” are separate entries in the source; they are usually repeats but may differ in a detail not shown here. Identical values can stand only once.

Key:
[1] = target: T1, Serotonin (5-Hydroxytryptamine) 5-HT1A (Homo sapiens, UniProt P08908); assay: Radioligand binding, 5-HT1A ([3H] 8-OH-DPAT)
T1 construct: expressed in transfected cells; host or cells: CHO cells
T1 sequence (P08908 1-422): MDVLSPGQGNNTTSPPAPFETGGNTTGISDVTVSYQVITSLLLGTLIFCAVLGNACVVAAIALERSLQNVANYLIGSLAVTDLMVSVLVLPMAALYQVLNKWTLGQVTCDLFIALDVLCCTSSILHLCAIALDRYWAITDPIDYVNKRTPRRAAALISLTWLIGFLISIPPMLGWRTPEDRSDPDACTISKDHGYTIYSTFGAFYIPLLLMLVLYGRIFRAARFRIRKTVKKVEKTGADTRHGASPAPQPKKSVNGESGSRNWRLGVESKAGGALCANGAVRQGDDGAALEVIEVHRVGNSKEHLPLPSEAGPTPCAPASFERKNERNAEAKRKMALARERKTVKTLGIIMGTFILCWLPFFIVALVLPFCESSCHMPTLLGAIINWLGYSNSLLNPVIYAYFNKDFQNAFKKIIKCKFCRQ
Experimental: (§1) The methods employed in this study have been adapted from the scientific literature to maximize reliability and reproducibility. Reference standards were run as an integral part of each assay to ensure the validity of the results obtained. Assays were performed under conditions as described below. Where presented, IC50 values were determined by a non-linear, least squares regression analysis using the Data Analysis Toolbox (MDL Information Systems, San Leandro, Calif., USA). Where inhibition constants (Ki) are presented, the Ki values were calculated using the equation of Cheng and Prusoff (Cheng, Y., Prusoff, W. H., Biochem. Pharmacol. 22:3099-3108, 1973) using the observed IC50 of the tested compound, the concentration of radioligand employed in the assay, and historical values for the KD of the ligand. Where presented, the Hill coefficient (nu), defining the slope of the competitive binding curve, was calculated using the Data Analysis Toolbox.

[2] = target: T2, Serotonin (5-Hydroxytryptamine) 5-HT1B (Rattus norvegicus, UniProt P28564); assay: Assay 271200 radioligand binding, 5-HT1B; parameters: species or system Wistar Rat
T2 construct: from tissue
T2 sequence (P28564 whole entry): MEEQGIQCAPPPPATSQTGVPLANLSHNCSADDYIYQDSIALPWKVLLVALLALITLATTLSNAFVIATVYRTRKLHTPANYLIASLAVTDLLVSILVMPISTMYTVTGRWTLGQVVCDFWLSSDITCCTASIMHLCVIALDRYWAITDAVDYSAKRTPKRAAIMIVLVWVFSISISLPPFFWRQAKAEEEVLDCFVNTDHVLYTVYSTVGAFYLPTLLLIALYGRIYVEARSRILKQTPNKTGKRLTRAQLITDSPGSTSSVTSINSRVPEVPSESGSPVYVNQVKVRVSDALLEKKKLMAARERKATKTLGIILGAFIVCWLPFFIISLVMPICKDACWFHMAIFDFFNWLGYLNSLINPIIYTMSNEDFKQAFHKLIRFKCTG
Experimental: as §1

[3] = system: Serotonin (5-Hydroxytryptamine) 5-HT2, Non-Selective; assay: Assay 271600 radioligand binding, 5-HT2 non-selective; parameters: species or system Wistar Rat
Experimental: as §1

[4] = system: TNF-α; assay: Model of LPS-mediated cytokine production, serum TNF-α; assay type: in vivo, CD1:ICR mice; settings: pre-dose time course, 10 mg/kg, IV or IP
Experimental: (§2) Both ICI-685 and ICI-735 were formulated in water. For the time course study, both drugs were formulated at a concentration of 1 mg/ml and dosed 10 ml/kg to produce a dose of 10 mg/kg. For the dose-response study, drug was formulated at concentrations of 0.05, 0.2 and 0.5 mg/ml and dosed at a volume of 10 ml/kg to produce doses of 0.5, 2 and 5 mg/kg, respectively. Animals were dosed IV or IP.
CD1:ICR mice were obtained from Harlan (Indianapolis, Ind.) at 6 weeks of age. Animals were housed 5 per cage, kept on a 12 hr light dark cycle and fed food and water ad libitum. Animals were tested at 8-10 weeks of age.
(§3) Lipopolysaccharide (heat killed E. coli 0127:B5; Sigma Aldrich) was prepared in distilled water at a concentration of 0.025 mg/ml. LPS was dosed at a volume of 10 ml/kg (IP) to produce a final dose of 0.25 mg/kg (approximately 7.5 μg/mouse). Drugs were dosed prior to LPS administration as indicated elsewhere herein. Blood was collected by retro-orbital eye bleed 90 minutes after LPS administration, Serum was prepared from blood and TNF-α and IL-1β levels were measured by using the OPT-EIA mouse TNF-α and IL-1β ELISA kits (BD Biosciences) as per directions of the manufacturer.
The first study was designed to determine the optimal route of administration and the optimal pre-treatment time. Two pre-dose time course studies were conducted. The first (Study 1A) was conducted with 3 pre-dose time points (2, 6 and 18 hrs). The second was conducted at 0, 1 and 2 hr predose time points. For both studies, drug was dosed IP or IV.
Using data from the first study, a second study was conducted that was designed to measure dose-response activity of each compound. Compounds were tested at doses of […]., 2.0 and 5 mg/kg using the route and pre-treatment time that produced the best activity.
as §2, with “Compounds ICI-715, ICI-824, ICI-953” for “Both ICI-685”, “ICI-954” for “ICI-735”, “study,” for “study, both”, “drugs were” for “drug was”
as §3, with “mg/ml,” for “mg/ml.”, “[…]).” for “μg/mouse).”, “above.” for “elsewhere herein.”, “administration.” for “administration,”
The first study was designed to determine the optimal route of administration and the optimal pre-treatment time. One pre-dose time course was conducted (for all compounds) with compounds administered at 0, 1 and 2 hrs prior to LPS treatment. For both studies, drug was dosed IP or IV. The IP study and IV study were conducted on separate days.
Using data from the first study, a second study was conducted that was designed to measure dose-response activity of each compound. Compounds were tested at doses of 0.5, 2.0 and 5 mg/kg using the route and pre-treatment time that produced the best activity.

[5] = system: cryopreserved mixed gender human hepatocytes; assay: Hepatocyte stability assay; assay type: in vitro ADME; settings: 5 μM test compound
Experimental: Test compounds (5 μM) were incubated with cryopreserved mixed gender human hepatocytes pooled from at least 3 donors. Cell viability of hepatocytes was assessed by a Trypan Blue assay prior to the initiation of the stability assay. The final hepatocyte cell density was 1.5×10^6 viable cells/mL, Samples were taken at 2 time points: 0 and 60 minutes. As positive controls, testosterone (20 μM) and 7-hydroxy-coumarin (100 μM) were incubated and sampled at 5 time points: 0, 15, 30, 60, and 120 minutes. Aliquots were removed and combined (50/50) with acetonitrile to terminate the reaction. Samples were mixed for 10 minutes and centrifuged. The supernatants were transferred to vial for analysis by HRMS. In this assay, both test compound and a des-glycine metabolite (M1) are quantified based on peak area response ratios.
The enzymatic activities of the human cryopreserved hepatocytes used in this study were verified in parallel by determining the disappearance of testosterone (expressed as half-life) and the formation of 7-hydroxycoumarin glucuronide and 7-hydroxycoumarin sulfate (expressed as a formation rate).

NCC(=O)NCCN1CCN(CCCN2c3ccccc3Sc3ccc(C(F)(F)F)cc32)CC1 [ICI-735]
inhibition at 0.1 µM ([1]; 0.1 μM): 14%
inhibition at 10 µM ([1]; 10 μM): 89%
inhibition at 0.1 µM ([2]; 0.1 μM): 13%
inhibition at 10 µM ([2]; 10 μM): 86%
% INHIBITION ([3]; 0.1 μM): 62%
% INHIBITION ([3]; 10 μM): 91%
inhibition of LPS-stimulated TNFα secretion [4]: inhibited
Relative Level (%) ([5]; T = 0 minutes): 99.5% and 100.5%
Peak Areas ([5]; T = 60 minutes): 8.39E+06 and 8.79E+06
Relative Level (%) ([5]; T = 60 minutes): 89.6% and 92.4%
